Patent US20240246913A1, “2-CARBOXYL-INDOLE INHIBITORS OF METALLO-BETA-LACTAMASES” (Oxford University Innovation Limited, priority 2021, published 2024)

How the values were obtained:
[1] = Metabolic stability in mouse hepatocytes; format: in vitro ADME; conditions: cryopreserved mouse hepatocytes, 1 μM compound, 37° C., up to 90 min, read-out: Metabolic stability in hepatocytes, in vitro t1/2, Mouse
Procedure: (§1) Metabolic stability assays were performed in cryopreserved human and mouse hepatocytes. The hepatocytes were thawed and added to “Thawing media”, and centrifuged to pellet the hepatocytes. The cell pellet was taken up in Williams medium E (Invitrogen A1217601), the number of cells was calculated and adjusted to 1.0×10^6 cells/mi. The incubation was carried out on a heater-shaker at […], in a 24-well Picoplate (round bottom, PerkinElmer), using an incubation volume of […]. Thus, to obtain a final compound concentration of 1 μM, 0.7 μl of the 1 mM compound stock solution was pipetted to the wells of the plate. Reaction was initiated by adding 700 μl of cell suspension. Samples were incubated at 37° C. for […] and a zero sample was taken, i.e. 100 μl sample was removed to a 96-well plate and the reaction was quenched by adding 100 μl of 100% MeCN containing 50 nM Warfarin as an internal control. Consecutive samples were taken at time-points 5 min, 15 min, 30 min, 60 min, and 90 min. After finishing the experiment, samples were centrifuged at 3000 rpm for 15 min and before analysis by LC-MS/MS (Waters Corp, Milford, MA, USA).

bacteria = experiment: Thigh and/or septicaemia mouse model of infection, with meropenem; format: in vivo; conditions: NMRI mice; single dose with meropenem subcutaneous 1 h after inoculation; endpoint 3 h after treatment initiation
Procedure: Female NMRI mice (5-6 weeks old, 26-30 gram, n=5) were rendered neutropenic via intraperitoneal injection of two doses of cyclophosphamide on day 4 and day 1 before infection. The animals were infected via intramuscular injection of an inoculum containing 10^6 CFU/mL of bacteria in the left thigh. The animals were treated with a single dose of meropenem subcutaneous +/− inhibitor 1 h after inoculation, and animals were either euthanised at the start of treatment or at the study endpoint at 3 h after treatment initiation. Clinical scores were monitored at 1 and 4 hours post inoculation and were in all cases mild or moderate. Thighs were aseptically removed from the animals, homogenised, diluted, and plated for incubation. Bacterial counting was performed after 18-22 h of incubation at 35° C. in ambient air.
Immunocompetent female NMRI mice mice (5-6 weeks old, 26-30 gram, n=5) were inoculated intraperitoneally with 0.5 ml inoculum containing 5×10^5 CFU suspended in 5% porcine mucin.
The animals were treated with a single dose of meropenem subcutaneous+/−metallo-b-lactamase inhibitor intravenous 1 h after inoculation. Animals were either euthanised at the start of treatment or at the study endpoint at 3 h after treatment initiation. Clinical scores were monitored at 1 and 4 hours post inoculation and were in all cases mild or moderate. Mice were anaesthetised anesthetized with a buprenorphine/tiletamine/zolazepam cocktail and bled, then euthanized and the peritoneum flushed with 2 ml sterile 0.9% NaCl and collected. The blood and/or peritoneal flush were serially diluted and plated for incubation. Bacterial counting was performed after 18-22 h of incubation at 35° C. in ambient air.

VIM-1 = VIM-1 (Pseudomonas aeruginosa, UniProt A0A0F7KYQ8); experiment: MBL inhibition, FC-5 fluorescence assay, VIM-1; format: biochemical; conditions: FC-5 cephalosporin substrate, ranges of obtained pIC50, read-out: pIC50 VIM-1 (converted)
Summary of the method: (§2)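 Turnover of the fluorogenic cephalosporin FC-5 by each MBL, followed as initial rate of fluorescence increase (ex 380/em 460 nm). Dose-response curves fitted with a variable-slope normalized-response model; 4 intra-plate replicates per concentration.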

[2] = Plasma protein binding, equilibrium dialysis, mouse plasma; format: in vitro ADME; conditions: pH 7.4, equilibrium dialysis (RED) 4 hours at 37° C., read-out: Plasma protein binding, fu, Mouse
Summary of the method: (§3)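 Compound at 10 μM in plasma dialysed against 67 mM phosphate buffer pH 7.4 for 4 h at 37° C. in RED device; unbound fraction from buffer and plasma levels by LC-MS/MS. Plasma stability checked in parallel over 4 h at 37° C. versus frozen control.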

[3] = Metabolic stability in human hepatocytes; format: in vitro ADME; conditions: cryopreserved human hepatocytes, 1 μM compound, 37° C., up to 90 min, read-out: Metabolic stability in hepatocytes, in vitro t1/2, Human
Procedure: as §1

NDM-1 = NDM-1 (Klebsiella pneumoniae, UniProt C7C422); experiment: MBL inhibition, FC-5 fluorescence assay, NDM-1; format: biochemical; conditions: FC-5 cephalosporin substrate, fluorescence; ranges of obtained pIC50; read-out: pIC50 NDM-1 (converted)
Summary of the method: as §2

VIM-2 = VIM-2 (Escherichia coli, UniProt Q5U7L7); experiment: MBL inhibition, FC-5 fluorescence assay, VIM-2; format: biochemical; conditions: FC-5 cephalosporin substrate, ranges of obtained pIC50, read-out: pIC50 VIM-2 (converted)
Summary of the method: as §2

IMP-1 = IMP-1 (Serratia marcescens, UniProt P52699); experiment: MBL inhibition, FC-5 fluorescence assay, IMP-1; format: biochemical; conditions: FC-5 cephalosporin substrate, fluorescence; ranges of obtained pIC50; read-out: pIC50 IMP-1 (converted)
Summary of the method: as §2

[4] = Plasma protein binding, equilibrium dialysis, human plasma; format: in vitro ADME; conditions: pH 7.4, equilibrium dialysis (RED) 4 hours at 37° C., read-out: Plasma protein binding, fu, Human
Summary of the method: as §3

Escherichia coli NDM-1 = experiment: Antibiotic susceptibility testing (MIC), EC NDM-1; format: cell-based; conditions: agar or broth dilution (CLSI/EUCAST)
Procedure: (§4) Antibiotic susceptibility testing was performed using the agar or broth dilution method, in line with the Clinical and Laboratory Standards Institute (CLSI) and European Committee on Antimicrobial Susceptibility Testing (EUCAST) requirements.

[5] = test system: Acinetobacter baumannii NDM-1; experiment: Antibiotic susceptibility testing (MIC), AB NDM-1; format: cell-based; conditions: agar or broth dilution (CLSI/EUCAST)
Procedure: as §4

Escherichia coli NDM-7 = experiment: Antibiotic susceptibility testing (MIC), EC NDM-7; format: cell-based; conditions: agar or broth dilution (CLSI/EUCAST)
Procedure: as §4

Sequence of IMP-1 (P52699 19-246, looked up, species assumed): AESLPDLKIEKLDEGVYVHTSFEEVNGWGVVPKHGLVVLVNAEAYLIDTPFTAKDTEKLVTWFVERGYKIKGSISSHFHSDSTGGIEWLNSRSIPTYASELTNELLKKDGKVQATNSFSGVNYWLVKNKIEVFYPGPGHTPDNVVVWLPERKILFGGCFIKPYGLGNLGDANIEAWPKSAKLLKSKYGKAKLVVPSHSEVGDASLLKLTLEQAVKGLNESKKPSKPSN
Sequence of NDM-1 (C7C422 29-270, looked up, species assumed): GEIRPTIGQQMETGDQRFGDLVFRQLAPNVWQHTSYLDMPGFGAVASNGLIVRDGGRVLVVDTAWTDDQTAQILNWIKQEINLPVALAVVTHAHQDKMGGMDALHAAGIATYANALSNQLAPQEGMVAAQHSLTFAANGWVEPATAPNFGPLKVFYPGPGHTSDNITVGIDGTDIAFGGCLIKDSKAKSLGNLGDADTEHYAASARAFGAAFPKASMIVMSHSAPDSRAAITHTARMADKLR

## CC(NC(=O)c1ccc(CN)cc1)c1cccc2c(-c3ccc(CN4CCOCC4)nc3)c(C(=O)O)[nH]c12 (stereo not drawn) [IC-11, 7-(1-((4-(Aminomethyl)benzoyl)amino)ethyl)-3-(6-(morpholin-4-ylmethyl)pyridin-3-yl)-1H-indole-2-carboxylic acid]
[1]
  half-life at 1 μM: > 6.67 h
bacteria
  Dose required to reduce minim 1 log fold CFU in a thigh and or a sepsis animal model: B (B = 30-10 mg/kg)
VIM-1
  IC50: > 10 nM
[2]
  fraction unbound at 4 h, 10 μM: 0.005 to 0.05
[3]
  half-life at 1 μM: > 6.67 h
NDM-1
  IC50: < 0.1 nM
VIM-2
  IC50: 1 to 10 nM
IMP-1
  IC50: > 10 nM
[4]
  fraction unbound at 4 h, 10 μM: > 0.25

## C[C@@H](c1cccc2c(-c3ccc(NS(C)(=O)=O)c(F)c3)c(C(=O)O)[nH]c12)N1C[C@]2(C[C@@H](CN)C2)OC1=O [IC-14, 7-((S)-1-((2S,4r)-2-(Aminomethyl)-6-oxo-5-oxa-7-azaspiro[3.4]octan-7-yl)ethyl)-3-(3-fluoro-4-(methylsulfonamido)phenyl)-1H-indole-2-carboxylic acid]
[1]
  half-life at 1 μM: 2.5 to 6.67 h
bacteria
  Dose required to reduce minim 1 log fold CFU in a thigh and or a sepsis animal model: C (C = 5-10 mg/kg)
VIM-1
  IC50: 0.1 to 1 nM
[2]
  fraction unbound at 4 h, 10 μM: 0.05 to 0.25
Escherichia coli NDM-1
  MIC values EC NDM-1: A (A = MIC values ≤ 1)
[3]
  half-life at 1 μM: > 6.67 h
NDM-1
  IC50: < 0.1 nM
[5]
  MIC values AB NDM-1: B (B MIC values 2 ÷ 8)
VIM-2
  IC50: 0.1 to 1 nM
IMP-1
  IC50: > 10 nM
[4]
  fraction unbound at 4 h, 10 μM: 0.05 to 0.25
Escherichia coli NDM-7
  MIC values EC NDM-7: A (A = MIC values ≤ 1)

## COc1cc(-c2c(C(=O)O)[nH]c3c([C@H](C)N4C[C@]5(C[C@@H](CN)C5)OC4=O)cccc23)ccn1 [IC-17, 7-((1S)-1-(2-(aminomethyl)-6-oxo-5-oxa-7-azaspiro[3.4]octan-7-yl)ethyl)-3-(2-methoxypyridin-4-yl)-1H-indole-2-carboxylic acid]
[1]
  half-life at 1 μM: 2.5 to 6.67 h
bacteria
  Dose required to reduce minim 1 log fold CFU in a thigh and or a sepsis animal model: B (B = 30-10 mg/kg)
VIM-1
  IC50: 1 to 10 nM
[2]
  fraction unbound at 4 h, 10 μM: 0.005 to 0.05
Escherichia coli NDM-1
  MIC values EC NDM-1: A (A = MIC values ≤ 1)
[3]
  half-life at 1 μM: > 6.67 h
NDM-1
  IC50: 0.1 to 1 nM
[5]
  MIC values AB NDM-1: B (B MIC values 2 ÷ 8)
VIM-2
  IC50: < 0.1 nM
IMP-1
  IC50: > 10 nM
[4]
  fraction unbound at 4 h, 10 μM: 0.05 to 0.25
Escherichia coli NDM-7
  MIC values EC NDM-7: A (A = MIC values ≤ 1)

## C[C@@H](c1cccc2c(-c3ccnc(O)c3)c(C(=O)O)[nH]c12)N1C[C@]2(C[C@@H](CN)C2)OC1=O [IC-18, 7-((S)-1-((2S,4r)-2-(aminomethyl)-6-oxo-5-oxa-7-azaspiro[3.4]octan-7-yl)ethyl)-3-(2-hydroxypyridin-4-yl)-1H-indole-2-carboxylic acid]
[1]
  half-life at 1 μM: > 6.67 h
bacteria
  Dose required to reduce minim 1 log fold CFU in a thigh and or a sepsis animal model: C (C = 5-10 mg/kg)
VIM-1
  IC50: 1 to 10 nM
[2]
  fraction unbound at 4 h, 10 μM: 0.005 to 0.05
Escherichia coli NDM-1
  MIC values EC NDM-1: A (A = MIC values ≤ 1)
[3]
  half-life at 1 μM: < 2.5 h
NDM-1
  IC50: 0.1 to 1 nM
[5]
  MIC values AB NDM-1: B (B MIC values 2 ÷ 8)
VIM-2
  IC50: 0.1 to 1 nM
IMP-1
  IC50: > 10 nM
[4]
  fraction unbound at 4 h, 10 μM: > 0.25
Escherichia coli NDM-7
  MIC values EC NDM-7: A (A = MIC values ≤ 1)
